pIC50: −log10 of the molar value.
target: GCN2 (Homo sapiens, UniProt Q9P2K8); experiment: GCN2 enzymatic endpoint assay: phosphorylation of GFP-eIF2α measured by TR-FRET (Lanthascreen); assay type: biochemical; details: GCN2 biochemical IC50; 4 nM GCN2, 2 μM ATP, 80 nM GFP-eIF2α, 90 min RT; read-out: GCN2 activity
Experimental: The Enzymatic assay was run as an endpoint assay to quantify the activity of the serine/threonine GCN2 kinase by way of measuring phosphorylation of its natural substrate, eiF2α.
The enzymatic reaction was initiated by incubating with 2 μM ATP and 80 nM of GFP labeled eiF2a substrate at room temperature and then stopped after 90 minutes with EDTA. The amount of phosphorylated eIF2α is determined by TR-FRET (Lanthascreen). A terbium labeled antibody associates with the phosphorylated substrate resulting in an increased TR-FRET value. Activity was calculated as the ratio of the acceptor (fluorescein) signal at 520 nm wavelength to the donor (terbium) signal 495 nm. The amount of antibody that is bound to the tracer is directly proportional to the amount of phosphorylated substrate present, and in this manner, kinase activity can be detected and measured by an increase in the TR-FRET value.
Compound addition by D300
5 μL enzyme solution in assay buffer
5 μL substrate/ATP mixture in assay buffer
5 μL stop/detection mix in antibody dilution buffer

GCN2, sequence (Q9P2K8 whole entry): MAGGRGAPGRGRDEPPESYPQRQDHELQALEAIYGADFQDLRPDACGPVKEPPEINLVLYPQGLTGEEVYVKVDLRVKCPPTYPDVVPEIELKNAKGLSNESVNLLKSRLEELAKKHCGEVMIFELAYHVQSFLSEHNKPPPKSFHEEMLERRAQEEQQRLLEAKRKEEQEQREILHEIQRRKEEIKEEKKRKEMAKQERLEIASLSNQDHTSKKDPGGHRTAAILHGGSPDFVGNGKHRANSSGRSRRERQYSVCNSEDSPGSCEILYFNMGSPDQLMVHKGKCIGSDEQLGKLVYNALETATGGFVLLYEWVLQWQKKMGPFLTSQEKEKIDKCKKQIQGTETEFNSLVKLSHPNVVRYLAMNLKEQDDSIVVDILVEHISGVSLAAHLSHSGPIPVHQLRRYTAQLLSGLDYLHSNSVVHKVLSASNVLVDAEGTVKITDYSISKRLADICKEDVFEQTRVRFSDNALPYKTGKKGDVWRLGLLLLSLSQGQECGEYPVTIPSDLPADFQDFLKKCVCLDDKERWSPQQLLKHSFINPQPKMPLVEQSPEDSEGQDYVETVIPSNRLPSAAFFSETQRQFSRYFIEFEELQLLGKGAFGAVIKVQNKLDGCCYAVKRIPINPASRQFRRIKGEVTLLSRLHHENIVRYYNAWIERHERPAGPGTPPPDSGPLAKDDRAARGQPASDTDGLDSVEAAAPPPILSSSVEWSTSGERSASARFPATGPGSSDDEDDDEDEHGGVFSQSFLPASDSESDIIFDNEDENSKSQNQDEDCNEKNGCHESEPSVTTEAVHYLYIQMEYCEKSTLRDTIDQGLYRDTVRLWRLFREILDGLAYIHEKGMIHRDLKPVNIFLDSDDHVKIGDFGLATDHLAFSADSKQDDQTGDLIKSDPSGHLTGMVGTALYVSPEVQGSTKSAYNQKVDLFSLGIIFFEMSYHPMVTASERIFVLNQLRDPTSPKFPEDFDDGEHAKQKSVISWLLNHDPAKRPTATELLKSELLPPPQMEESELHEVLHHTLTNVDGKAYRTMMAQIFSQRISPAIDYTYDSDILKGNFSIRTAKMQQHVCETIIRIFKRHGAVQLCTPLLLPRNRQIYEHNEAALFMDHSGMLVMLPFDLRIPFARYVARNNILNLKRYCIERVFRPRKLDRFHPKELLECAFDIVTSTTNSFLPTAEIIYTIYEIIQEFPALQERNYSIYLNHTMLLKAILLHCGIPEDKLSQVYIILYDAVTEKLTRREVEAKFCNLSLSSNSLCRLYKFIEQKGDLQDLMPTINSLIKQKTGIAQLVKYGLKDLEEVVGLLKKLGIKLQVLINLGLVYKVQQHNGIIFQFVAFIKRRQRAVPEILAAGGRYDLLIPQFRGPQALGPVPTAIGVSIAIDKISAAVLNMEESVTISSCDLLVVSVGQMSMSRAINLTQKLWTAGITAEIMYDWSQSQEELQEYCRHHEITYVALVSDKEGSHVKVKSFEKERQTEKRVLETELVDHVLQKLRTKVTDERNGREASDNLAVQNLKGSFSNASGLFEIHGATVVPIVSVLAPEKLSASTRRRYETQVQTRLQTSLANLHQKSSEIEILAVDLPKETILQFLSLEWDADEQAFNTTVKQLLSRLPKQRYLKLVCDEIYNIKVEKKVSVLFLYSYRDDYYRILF

| pIC50 | Compound |
| --- | --- |
| 6.30 to 6.70 | CN1CCN(C(=O)[C@@H]2CC[C@@H](Nc3ncc4c(Br)nn(-c5ccc(N6CCOCC6)c(C#N)c5)c4n3)C2)CC1=O [Example 9, 5-(3-bromo-6-(((1R,3R)-3-(4-methyl-3-oxopiperazine-1-carbonyl)cyclopentyl)amino)-1H-pyrazolo[3,4-d]pyrimidin-1-yl)-2-morpholinobenzonitrile] |

same assay, conditions: tested as described in Example 77; compound and/or hydrochloride, dihydrochloride or trifluoroacetic acid salt; read-out: IC 50 Activity

| Compound | pIC50 |
| --- | --- |
| CNC(=O)[C@]1(C)CC[C@@H](Nc2ncc3c(Br)nn(-c4cc(CCC(=O)O)c5ncccc5c4)c3n2)C1 [3-[6-[3-bromo-6-[[(1R,3R)-3-methyl-3-(methylcarbamoyl)cyclopentyl]amino]pyrazolo[3,4-d]pyrimidin-1-yl]-8-quinolyl]propanoic acid] | > 7.60 |
| Cc1nnc(-c2ccc(-n3nc(Br)c4cnc(NC5CC(P(C)(C)=O)C5)nc43)cc2CCS(C)(=O)=O)s1 (stereo not drawn) [3-bromo-N-(3-dimethylphosphorylcyclo-butyl)-1-[3-(2-methylsulfonylethyl)-4-(5-methyl-1,3,4-thiadiazol-2-yl)phenyl] pyrazolo[3,4-d]pyrimidin-6-amine] | 6.70 to 7.60 |
| CNC(=O)[C@]1(C)CC[C@@H](Nc2ncc3c(Br)nn(-c4ccc5ncn(CCN)c(=O)c5c4)c3n2)C1 | 6.70 to 7.60 |
| CNC(=O)[C@]1(C)CC[C@@H](Nc2ncc3c(Br)nn(-c4ccc5c(c4)COC5=O)c3n2)C1 | 6.70 to 7.60 |
| CNC(=O)[C@]1(C)CC[C@@H](Nc2ncc3c(Br)nn(-c4ccc5ncc(C(C)(C)O)cc5c4)c3n2)C1 [(1R,3R)-3-[[3-bromo-1-[3-(1-hydroxy-1-methyl-ethyl)-6-quinolyl]pyrazolo[3,4-d]pyrimidin-6-yl]amino]-N,1-dimethyl-cyclopentanecarboxamide] | 6.70 to 7.60 |

Other lines, results leading:

| pIC50 | Compound |
| --- | --- |
| 6.70 to 7.60 | O=C(NCc1nnn[nH]1)[C@@H]1CC[C@@H](Nc2ncc3c(Br)nn(-c4cc(F)c5ncccc5c4)c3n2)C1 [(1R,3R)-N-((1H-tetrazol-5-yl)methyl)-3-((3-bromo-1-(8-fluoroquinolin-6-yl)-1H-pyrazolo [3,4-d]pyrimidin-6-yl)amino)cyclopentane-1-carboxamide] |
| 6.70 to 7.60 | CNC(=O)[C@]1(C)CC[C@@H](Nc2ncc3c(Br)nn(-c4ccc(-c5nnc(C)s5)c(CCS(C)(=O)=O)c4)c3n2)C1 [(1R,3R)-3-[[3-bromo-1-[3-(2-methyl-sulfonylethyl)-4-(5-methyl-1,3,4-thiadiazol-2-yl)phenyl]pyrazolo[3,4-d]pyrimidin-6-yl]amino]-N,1-dimethyl-cyclopentanecarboxamide] |
| 6.70 to 7.60 | CNC(=O)[C@]1(C)CC[C@@H](Nc2ncc3c(Br)nn(-c4cc(CCN5CCOCC5)c5ncccc5c4)c3n2)C1 [(1R,3R)-3-[[3-bromo-1-[8-(2-morpholinoethyl)-6-quinolyl]pyrazolo [3,4-d]pyrimidin-6-yl]amino]-N,1-dimethyl-cyclopentanecarboxamide] |
| > 7.60 | CNC(=O)[C@]1(C)CC[C@@H](Nc2ncc3c(Br)nn(-c4ccc(-c5ncco5)c([C@@H]5CCNC5)c4)c3n2)C1 [(1R,3R)-3-[[3-bromo-1-[4-oxazol-2-yl-3-[(3S)-pyrrolidin-3-yl]phenyl]pyrazolo[3,4-d]pyrimidin-6-yl]amino]-N,1-dimethyl-cyclopentanecarboxamide] |
| 6.70 to 7.60 | Cc1cn2c(n1)CN(C(=O)[C@@H]1CC[C@@H](Nc3ncc4c(Br)nn(-c5cc(F)c6ncccc6c5)c4n3)C1)CC2 [[(1R,3R)-3-[[3-bromo-1-(8-fluoro-6-quinolyl)pyrazolo[3,4-d]pyrimidin-6-yl]amino]cyclo-pentyl]-(2-methyl-6,8-dihydro-5H-imidazo [1,2-a]pyrazin-7-yl)methanone] |
| 6.70 to 7.60 | CNC(=O)[C@@]1(CC(F)F)CC[C@@H](Nc2ncc3c(Br)nn(-c4ccc(-c5nnc(C)o5)cc4)c3n2)C1 [(1S,3R)-3-[[3-bromo-1-[4-(5-methyl-1,3,4-oxadiazol-2-yl)phenyl]pyrazolo[3,4-d]pyrimidin-6-yl]amino]-1-(2,2-difluoroethyl)-N-methyl-cyclopentanecarboxamide] |

From US11046699B2, “Pyrazolo-pyrimidin-amino-cycloalkyl compounds and their therapeutic uses” (RAPT THERAPEUTICS, INC., priority 2018, dated 2021)
